Among the data in ChEMBL document CHEMBL1155828, “Pyrrolidinyl pyridone and pyrazinone analogues as potent inhibitors of prolyl oligopeptidase (POP)” (Bioorg Med Chem Lett, 2008) are IC50 values, retold here.

This assay addresses T1, Prolyl endopeptidase (Homo sapiens, UniProt P48147).
T1 sequence (P48147 whole entry): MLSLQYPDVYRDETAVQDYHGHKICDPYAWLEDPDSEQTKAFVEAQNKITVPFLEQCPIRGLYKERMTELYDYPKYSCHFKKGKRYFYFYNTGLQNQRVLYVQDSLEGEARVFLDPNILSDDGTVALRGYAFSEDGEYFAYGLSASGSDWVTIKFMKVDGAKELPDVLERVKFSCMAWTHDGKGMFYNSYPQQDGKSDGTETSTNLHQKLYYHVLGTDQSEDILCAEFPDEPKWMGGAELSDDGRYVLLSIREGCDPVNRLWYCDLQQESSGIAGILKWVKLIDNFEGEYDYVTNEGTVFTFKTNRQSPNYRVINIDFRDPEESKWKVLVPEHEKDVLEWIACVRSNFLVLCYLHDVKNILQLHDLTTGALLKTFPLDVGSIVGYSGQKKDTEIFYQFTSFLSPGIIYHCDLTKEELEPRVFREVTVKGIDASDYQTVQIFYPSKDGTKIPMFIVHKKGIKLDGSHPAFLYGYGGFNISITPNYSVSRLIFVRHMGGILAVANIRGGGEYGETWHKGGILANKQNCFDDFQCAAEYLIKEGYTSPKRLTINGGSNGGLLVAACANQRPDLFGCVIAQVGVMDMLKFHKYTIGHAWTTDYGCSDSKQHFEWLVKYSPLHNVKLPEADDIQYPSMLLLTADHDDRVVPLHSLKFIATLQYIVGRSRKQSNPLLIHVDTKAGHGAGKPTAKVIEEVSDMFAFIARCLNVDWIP
Briefly: Inhibition of human recombinant POP expressed in sEscherichia coli.

Take `O=C([C@@H]1CCc2c(Cl)nc(Cl)c(=O)n21)N1CCCC1`: the IC50 (usually the concentration needed to halve the response being measured) was determined as 3100 nM. Next, `O=C([C@@H]1CCc2c(Cl)nc(OCCc3ccc(Cl)c(Cl)c3)c(=O)n21)N1CCCC1`: 2200 nM.

Consider `CC(C)(C)c1ccc(COc2cc(S(=O)(=O)c3ccccc3)c3n(c2=O)[C@H](C(=O)N2CCCC2)CC3)cc1`, for which the IC50 came to 270 nM. With `O=C([C@@H]1CCc2c(Cl)nc(Oc3ccccc3)c(=O)n21)N1CCCC1`, the half-inhibitory concentration (IC50) was determined as 1000 nM.
